Measured values taken from the supplement of paper PMC11208160.

Assay: recombinant barcode read abundance after kanamycin selection (control-corrected) (log10(CPM+1)); higher = more efficient recombination; sequences stand for … in AGTGCAGAGAAAATCGGCCAGTTTTCTCTGCCTGCAGTCCGCATGCCGT…AGATTTATGCAGCGGACTGCCTTTCTCCCAAAGTGATAAACCGGACAGTATCATGGACCGGTTTTCCCGGTAATCCGTATTTGCAAGGTTGGTTTCACT; site = the 11-nt target
Experimental: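 Pooled E. coli target-specificity screen for the IS621 bridge recombinase. Each library plasmid pairs an 11-nt target (CT core) with a bridge RNA whose target-binding loop (9-nt LTG + 4-nt RTG) is reprogrammed; the rest of the 177-nt WT IS621 bridge RNA scaffold is fixed. The plasmid is co-electroporated with a WT donor plasmid; recombinase is induced with 0.1 mM IPTG and recombinants are selected on kanamycin. Recombinant barcodes are sequenced, converted to CPM, averaged over two biological replicates and corrected by the unselected control CPM. Molecule = full bridge RNA written as DNA: LTG = specificity nt 1-9, RTG = reverse complement of specificity nt 8-11, in the WT scaffold.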
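Further: IS621 recombinase and bridge RNA in Escherichia coli cells.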

Sequence	recombinant barcode read abundance (log10)
ACGCAATCTTGGGTTCTAACCTGTTGCCT (site ACGCACTCTAG)	0.0895
ACGCAATCTTGGGTTCTAACCTGTTGCCT (site ACGCAGTCTAG)	0.131
ACGCAATCTTGGGTTCTAACCTGTTGCCT (site ACGCATTCTAG)	0.157
ACGCACTCTTGGGTTCTAACCTGTTGCCG (site ACGCACTCTCG)	0.646
ACGCACTCTTGGGTTCTAACCTGTTGCCG (site GATGGTACTAT)	0.0148
ACGCATTCTTGGGTTCTAACCTGTTGCCT (site ACGCAATCTAG)	0.0565
ACGCATTCTTGGGTTCTAACCTGTTGCCT (site ACGCACTCTAG)	0.123
ACGCATTCTTGGGTTCTAACCTGTTGCCT (site ACGCAGTCTAG)	0.0603
ACGCATTCTTGGGTTCTAACCTGTTGCCT (site ACGCATTCTAG)	0.355
ACGCGCCCTTGGGTTCTAACCTGTTGCAC (site ACGCGCCCTGT)	0.152
ACGCGCCCTTGGGTTCTAACCTGTTGCAC (site CCGCGCCCTAT)	0.0707
ACGCTATCTTGGGTTCTAACCTGTTGCTT (site ACGCTATCTAA)	0.13
ACGCTATCTTGGGTTCTAACCTGTTGCTT (site CTAGCGACTCG)	0.159
ACGGCATCTTGGGTTCTAACCTGTTGCCT (site ACGGCATCTAG)	0.0883
ACGGCATCTTGGGTTCTAACCTGTTGCCT (site ACGGCCTCTAA)	0.225
ACGGGCTCTTGGGTTCTAACCTGTTGCTT (site ACGGGCTCTAA)	2.69
ACGGGCTCTTGGGTTCTAACCTGTTGCTT (site AGGGGCTCTCA)	0.032
ACGGTCACTTGGGTTCTAACCTGTTGCCG (site ACGGTCACTCG)	0.435
ACGGTCACTTGGGTTCTAACCTGTTGCCG (site AGGGGCACTCG)	0.533
ACGTCAACTTGGGTTCTAACCTGTTGCCT (site ACATCAACTAG)	0.192
ACGTCAACTTGGGTTCTAACCTGTTGCCT (site ACCTCAACTAG)	0.454

Sequence	recombinant barcode read abundance (log10)
ACGTCAACTTGGGTTCTAACCTGTTGCCT (site ACGTCAACTAG)	0.0389
ACGTCAACTTGGGTTCTAACCTGTTGCCT (site ACTTCAACTAG)	0.0307
ACGTTTCCTTGGGTTCTAACCTGTTGCAT (site AAGTTTCCTAC)	0.0104
ACGTTTCCTTGGGTTCTAACCTGTTGCAT (site ACGTTTCCTAT)	0.0487
ACTAAGTCTTGGGTTCTAACCTGTTGCCT (site AATAAGTCTAG)	0.106
ACTAAGTCTTGGGTTCTAACCTGTTGCCT (site ACTAAGTCTAG)	0.53
ACTAAGTCTTGGGTTCTAACCTGTTGCCT (site AGTAAGTCTAG)	0.0249
ACTAAGTCTTGGGTTCTAACCTGTTGCCT (site ATTAAGTCTAG)	0.0792
ACTACTACTTGGGTTCTAACCTGTTGCCA (site ACTACTACTTG)	0.0676
ACTACTACTTGGGTTCTAACCTGTTGCCA (site GGTACTACTTG)	0.433
ACTAGAACTTGGGTTCTAACCTGTTGCAA (site ACTAGAACTTT)	0.402
ACTAGAACTTGGGTTCTAACCTGTTGCAA (site ACTAGGACTCT)	0.116
ACTAGCTCTTGGGTTCTAACCTGTTGCTA (site ACTAGCTCTTA)	0.145
ACTAGCTCTTGGGTTCTAACCTGTTGCTA (site ACTAGGTCTTA)	0.0229
ACTAGGACTTGGGTTCTAACCTGTTGCAG (site ACTAGAACTTT)	0.0381
ACTAGGACTTGGGTTCTAACCTGTTGCAG (site ACTAGGACTCT)	2.49
ACTAGGACTTGGGTTCTAACCTGTTGCGC (site ACTAGGACTAC)	0.571
ACTAGGACTTGGGTTCTAACCTGTTGCGC (site ACTAGGACTCC)	0.478
ACTAGGACTTGGGTTCTAACCTGTTGCGC (site ACTAGGACTGC)	2.3
ACTAGGACTTGGGTTCTAACCTGTTGCGC (site ACTAGGACTTC)	0.0123
ACTCACCCTTGGGTTCTAACCTGTTGCGG (site ACTCACCCTCC)	2.62

Sequence	recombinant barcode read abundance (log10)
ACTCACCCTTGGGTTCTAACCTGTTGCGG (site CTATTAACTTA)	0.126
ACTCCGTCTTGGGTTCTAACCTGTTGCCT (site ACTCCGTCTAG)	1.28
ACTCCGTCTTGGGTTCTAACCTGTTGCCT (site ACTGCGTCTAG)	0.109
ACTCGATCTTGGGTTCTAACCTGTTGCCT (site ACTCGATCTAG)	0.595
ACTCGATCTTGGGTTCTAACCTGTTGCCT (site AGTCGATCTAA)	0.0189
ACTCGGCCTTGGGTTCTAACCTGTTGCCT (site ACTCGGCCTAC)	0.0497
ACTCGGCCTTGGGTTCTAACCTGTTGCCT (site ACTCGGCCTAG)	1.45
ACTCGTCCTTGGGTTCTAACCTGTTGCTA (site ACTCGTCCTTA)	0.584
ACTCGTCCTTGGGTTCTAACCTGTTGCTA (site GAGAAGACTAC)	0.0362
ACTGATACTTGGGTTCTAACCTGTTGCCT (site ACTGATACTAG)	1.84
ACTGATACTTGGGTTCTAACCTGTTGCCT (site ACTGATCCTAG)	0.0466
ACTGATACTTGGGTTCTAACCTGTTGCCT (site ACTGATGCTAG)	0.313
ACTGATACTTGGGTTCTAACCTGTTGCCT (site ACTGATTCTAG)	0.241
ACTGATCCTTGGGTTCTAACCTGTTGCAT (site ACTGATCCTAT)	2.35
ACTGATCCTTGGGTTCTAACCTGTTGCAT (site TTCTTAACTCC)	0.00751
ACTGATCCTTGGGTTCTAACCTGTTGCCT (site ACTGATACTAG)	0.00756
ACTGATCCTTGGGTTCTAACCTGTTGCCT (site ACTGATCCTAG)	2.1
ACTGATCCTTGGGTTCTAACCTGTTGCCT (site ACTGATGCTAG)	0.671
ACTGATCCTTGGGTTCTAACCTGTTGCCT (site ACTGATTCTAG)	0.0263
ACTGGGTCTTGGGTTCTAACCTGTTGCGT (site ACATGGTCTAC)	0.254
ACTGGGTCTTGGGTTCTAACCTGTTGCGT (site ACTGGGTCTAC)	2.66

Sequence	recombinant barcode read abundance (log10)
ACTGGGTCTTGGGTTCTAACCTGTTGCTT (site ACTGAGTCTAA)	0.782
ACTGGGTCTTGGGTTCTAACCTGTTGCTT (site ACTGGGTCTAA)	1.41
ACTGGTACTTGGGTTCTAACCTGTTGCCT (site ACGGGTACTAG)	0.161
ACTGGTACTTGGGTTCTAACCTGTTGCCT (site ACTGGTACTAG)	1.22
ACTGGTCCTTGGGTTCTAACCTGTTGCGG (site ACTGGTCCTCC)	2.93
ACTGGTCCTTGGGTTCTAACCTGTTGCGG (site GACATATCTAA)	0.0953
ACTTAGACTTGGGTTCTAACCTGTTGCCA (site ACTTAGACTAG)	0.502
ACTTAGACTTGGGTTCTAACCTGTTGCCA (site ACTTAGACTCG)	0.408
ACTTAGACTTGGGTTCTAACCTGTTGCCA (site ACTTAGACTGG)	0.0414
ACTTAGACTTGGGTTCTAACCTGTTGCCA (site ACTTAGACTTG)	0.363
ACTTAGACTTGGGTTCTAACCTGTTGCCG (site ACTTAGACTAG)	0.287
ACTTAGACTTGGGTTCTAACCTGTTGCCG (site ACTTAGACTCG)	1.29
ACTTAGACTTGGGTTCTAACCTGTTGCCG (site ACTTAGACTGG)	0.159
ACTTAGACTTGGGTTCTAACCTGTTGCCG (site ACTTAGACTTG)	0.129
ACTTAGTCTTGGGTTCTAACCTGTTGCTA (site ACATAGTCTCA)	0.178
ACTTAGTCTTGGGTTCTAACCTGTTGCTA (site ACTTAGTCTTA)	0.277
ACTTGAGCTTGGGTTCTAACCTGTTGCAG (site ACTTGAGCTCT)	1.48
ACTTGAGCTTGGGTTCTAACCTGTTGCAG (site CACGCTCCTAC)	0.167
ACTTGTACTTGGGTTCTAACCTGTTGCAT (site ACTTGGACTAT)	0.0152
